Legend:
[1] = biological target: E. coli UDP-N-acetylglucosamine enolpyruvoyl transferase, MurA (Escherichia coli, UniProt P0A749); assay: biochemical; conditions: (E) E. coli enzyme
Procedure, shortened: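 Enzyme in 50 mM Tris/HCl pH 8.0 with 5 mM DTT and 20% glycerol was pre-incubated 10 min at 37° C with test compound in DMSO/water. Tris/BME and assay buffer then started the 1 hr, 37° C reaction, with a baseline 340 nm reading taken at start. Stop solution followed, and colour developed 30 minutes.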

[2] = biological target: E. coli Uridine-diphosphate-N-acetylmuramoyl-L-alanine: D-glutamate liease, MurD (Escherichia coli, UniProt P14900); assay: biochemical; conditions: (E) E. coli enzyme
Procedure, shortened: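 Compound working solutions reach 100 μg/mL in 50 mM Tris/HCl (pH 8.5) after dilution of 10 mg/mL DMSO stocks; final level in the well not given here. Reaction buffer finals: 2 mM ATP, 50 mM MgCl2, 83 mM Tris/HCl, pH 8.0.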

[3] = biological target: T1, S. aureus UDP-N-acetylglucosamine enolpyruvoyl transferase, MurA (Staphylococcus aureus, UniProt P84058); assay: Inhibitory activity against MurA (S. aureus); assay type: biochemical; conditions: (S) S. aureus enzyme
T1 sequence (P84058 1-421): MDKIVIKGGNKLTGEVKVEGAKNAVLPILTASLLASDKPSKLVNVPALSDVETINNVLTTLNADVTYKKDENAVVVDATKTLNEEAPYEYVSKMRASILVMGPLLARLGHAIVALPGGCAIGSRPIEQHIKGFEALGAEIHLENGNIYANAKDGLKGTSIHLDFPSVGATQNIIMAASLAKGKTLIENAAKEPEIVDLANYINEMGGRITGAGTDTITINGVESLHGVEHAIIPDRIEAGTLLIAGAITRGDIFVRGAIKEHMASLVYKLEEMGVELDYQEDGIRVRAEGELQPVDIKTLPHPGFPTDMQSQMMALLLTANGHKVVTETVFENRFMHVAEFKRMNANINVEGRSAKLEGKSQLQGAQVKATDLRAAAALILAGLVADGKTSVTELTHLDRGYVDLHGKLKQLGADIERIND
Procedure: Evaluation of the Inhibitory Activity of Test Compounds Against Enzymes which Catalyze Bacterial Cell Wall Biosynthesis
S. aureus and E. coli UDP-N-acetylglucosamine enolpyruvoyl transferase, MurA
Preparation of Enzyme Solution:
The enzyme solution is prepared by admixing the following: 50 mM Tris/HCl pH 8.0, […] 1 M Tris, 5 mM DTT, […] 1 M DTT, 20% Glycerol 4 ml 50% Glycerol, add water to 10 ml.
Preparation of Stop Solution:
The stop solution is prepared by mixing the following: 4.2% ammonium molybdate in 4N HCl, 8.4 g/200 ml 4N HCl, 0.045% malachite green, 90 mg/200 ml water, then stir 1 part ammonium molybdate with 2 parts malachite green for 30 min.
A procedure similar to that described by C. T. Walsh in Biochemistry 33, 10646-10651, is used to evaluate the inhibitory activity of test compounds against MurA, the enzyme which catalyzes the first step of bacterial cell wall biosynthesis. Experiments are performed by adding a solution of test compound (in a mixture of dimethylsulfoxide and water) and an enzyme solution to a well. After a pre-incubation period of 10 mintues at 37° C., Tris/BME buffer and assay buffer are added. A start point optical density (OD0) reading is taken at 340 nm immediately following the addition of assay buffer. After incubation for 1 hr at 37° C., the stop solution is added and the color is allowed to develop for 30 minutes. An end point OD1 reading at […] is then taken. […]

E. coli UDP-N-acetylglucosamine enolpyruvoyl transferase, MurA, sequence (P0A749 whole entry): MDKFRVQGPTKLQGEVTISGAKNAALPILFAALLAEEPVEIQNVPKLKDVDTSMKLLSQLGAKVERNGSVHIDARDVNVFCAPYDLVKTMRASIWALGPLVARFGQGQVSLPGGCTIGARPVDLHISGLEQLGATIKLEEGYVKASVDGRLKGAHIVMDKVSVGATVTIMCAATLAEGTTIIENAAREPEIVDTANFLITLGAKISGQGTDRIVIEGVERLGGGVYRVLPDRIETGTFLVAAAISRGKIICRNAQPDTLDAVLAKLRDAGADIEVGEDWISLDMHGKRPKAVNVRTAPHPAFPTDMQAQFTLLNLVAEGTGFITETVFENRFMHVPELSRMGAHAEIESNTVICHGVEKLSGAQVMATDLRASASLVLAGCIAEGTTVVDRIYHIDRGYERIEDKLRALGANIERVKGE
E. coli Uridine-diphosphate-N-acetylmuramoyl-L-alanine: D-glutamate liease, MurD, sequence (P14900 whole entry): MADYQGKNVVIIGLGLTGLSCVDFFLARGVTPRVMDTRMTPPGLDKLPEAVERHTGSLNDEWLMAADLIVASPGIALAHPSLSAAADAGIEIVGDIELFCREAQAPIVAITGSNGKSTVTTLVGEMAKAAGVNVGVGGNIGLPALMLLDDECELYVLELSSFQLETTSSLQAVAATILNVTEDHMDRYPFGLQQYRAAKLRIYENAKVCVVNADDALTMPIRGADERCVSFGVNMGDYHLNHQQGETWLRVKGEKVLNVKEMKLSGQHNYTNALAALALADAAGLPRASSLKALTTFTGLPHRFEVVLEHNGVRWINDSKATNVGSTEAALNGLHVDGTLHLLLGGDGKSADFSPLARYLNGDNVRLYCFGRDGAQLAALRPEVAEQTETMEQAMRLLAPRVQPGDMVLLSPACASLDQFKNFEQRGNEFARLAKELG

SMILES: O=C1O/C(=C\c2ccc(Cl)cc2)C(O)=C1c1ccc2ccccc2c1 [Example 43]
- IC50 [1]: 57.3 µM
- IC50 [2]: > 71.7 µM
- melting point: 243 to 250 °C

SMILES: O=C1O/C(=C\c2cccc3ccccc23)C(O)=C1c1cccc2ccccc12 [Example 47]
- IC50 [1]: > 68.6 µM
- IC50 [2]: > 68.6 µM
- melting point: 216 to 218 °C

SMILES: O=C1O/C(=C\c2ccc3ccccc3c2)C(O)=C1c1ccc2ccccc2c1 [Example 52]
- IC50 [1]: > 68.6 µM
- IC50 [2]: 63.1 µM
- melting point: 285 to 290 °C

SMILES: O=C1O/C(=C\c2ccc(-c3ccccc3)cc2)C(O)=C1c1ccc(Cl)cc1 [Example 53]
- IC50 [1]: > 66.7 µM
- IC50 [2]: 13.3 µM
- melting point: 282 to 285 °C

SMILES: O=C1O/C(=C\c2ccc3ccccc3c2)C(O)=C1c1ccc(Cl)cc1 [Example 54]
- IC50 [1]: > 71.7 µM
- IC50 [2]: > 71.7 µM
- melting point: 284 to 286 °C

SMILES: O=C1O/C(=C\c2ccc3ccccc3c2)C(O)=C1c1cccc2ccccc12 [Example 56]
- IC50 [1]: > 68.6 µM
- IC50 [2]: > 68.6 µM
- melting point: 235 to 237 °C

SMILES: O=C1O/C(=C\c2ccc(-c3ccccc3)cc2)C(O)=C1c1cc(Cl)cc(Cl)c1 [Example 67]
- IC50 [1]: 7.33 µM
- IC50 [2]: 22 µM
- melting point: 279 to 280 °C

SMILES: O=C1O/C(=C\c2ccc(-c3ccccc3)cc2)C(O)=C1c1cccc(Cl)c1 [Example 69]
- IC50 [1]: 21.3 µM
- IC50 [2]: 50.7 µM
- melting point: 248 to 250 °C

SMILES: O=C1O/C(=C\c2cccc3ccccc23)C(O)=C1c1cc(Cl)cc(Cl)c1 [Example 70]
- IC50 [3]: 39.1 µM
- IC50 [2]: 44.4 µM
- melting point: 244 to 245 °C

SMILES: O=C1O/C(=C\c2cccc3ccccc23)C(O)=C1c1ccc(C(F)(F)F)cc1 [Example 71]
- IC50 [3]: > 65.4 µM
- IC50 [2]: > 65.4 µM
- melting point: 245 to 247 °C

SMILES: COc1cccc(C2=C(O)/C(=C/c3cccc4ccccc34)OC2=O)c1 [Example 72]
- IC50 [3]: > 72.6 µM
- IC50 [2]: > 72.6 µM
- melting point: 214 to 216 °C

SMILES: COC(=O)c1ccc(C2=C(O)/C(=C/c3cccc4ccccc34)OC2=O)cc1 [Example 74]
- IC50 [3]: > 67.1 µM
- IC50 [2]: > 67.1 µM
- melting point: 242 to 244 °C

SMILES: O=Cc1cccc(C2=C(O)/C(=C/c3cccc4ccccc34)OC2=O)c1 [Example 76]
- IC50 [3]: 17.5 µM
- IC50 [2]: 67.2 µM
- melting point: 220 to 221 °C

SMILES: O=C1O/C(=C\C2CCCCC2)C(O)=C1c1ccc(-c2ccccc2)cc1 [Example 100]
- IC50 [1]: > 72.2 µM
- IC50 [2]: > 72.2 µM
- melting point: 204 to 207 °C

SMILES: O=C1O/C(=C\c2cccnc2)C(O)=C1c1ccc(-c2ccccc2)cc1 [Example 101]
- IC50 [1]: 67.4 µM
- IC50 [2]: > 73.2 µM
- melting point: 252 to 255 °C

SMILES: Cc1ccc(/C=C2\OC(=O)C(c3ccc(-c4ccccc4)cc3)=C2O)s1 [Example 104]
- IC50 [1]: > 69.4 µM
- IC50 [2]: > 69.4 µM
- melting point: 235 to 240 °C

SMILES: O=C1O/C(=C\c2ccc(Cl)cc2)C(O)=C1c1ccc(-c2ccccc2)c(F)c1 [Example 138]
- IC50 [3]: 17.8 µM
- melting point: 255 to 258 °C

SMILES: O=C1O/C(=C\c2ccc(-c3ccccc3)cc2)C(O)=C1c1csc2ccccc12 [Example 143]
- IC50 [3]: > 63.1 µM
- melting point: 270 °C

SMILES: O=C1O/C(=C\c2ccc(-c3ccccc3)cc2)C(O)=C1c1cccs1 [Example 144]
- IC50 [3]: > 72.2 µM
- melting point: 213 °C (dec.)
